Laboratory results published in patent US6958145B2, “Synthesis of cyclic compounds” (Unisearch Limited, priority 2000, dated 2005).

Experiments:
AI-2 activity = experiment: V. harveyi bioassay for the detection of AI-2 activity; assay type: cell-based; conditions: V. harveyi BB170 luminescence
Protocol: The V. harveyi bioassay was performed as described previously (Surette and Bassler, 1998). The V. harveyi reporter strain BB170 was grown for 16 hours at 30° C. with shaking in AB medium. Cells were diluted 1:5,000 into 30° C. prewarmed AB medium and 90 ul of the diluted suspension was added to wells containing supernatant. Furanones were added to the wells to achieve the desired final concentrations and the final volume in each well was adjusted with sterile medium to 100 ul. Ten ul of V. harveyi BB152 (AI-1−, AI-2+) supernatant was used as a positive control and 10 ul of E. coli DH5α supernatant or sterile media was used as a negative control. […] The microtiter plates were incubated at 30° C. with shaking at 175 rpm. Hourly determinations of the total luminescence were quantified using the chemiluminescent setting on a Wallac (Gaithersburg, Md.) model 1450 Microbeta Plus liquid scintillation counter. The V. harveyi cell density was monitored by the use of a microplate reader (Bio-Rad, Hercules, Calif.). Activity is reported as the percentage of activity obtained from V. harveyi BB152 cell-free supernatant. While the absolute values of luminescence varied considerably between experiments, the pattern of results obtained was reproducible.

[1] = tested on: AHL mediated quorum sensing
[2] = tested on: two-component signal transduction; experiment: Taz-1 assay, two-component signal transduction; assay type: cell-based, E. coli; conditions: beta-galactosidase readout
Protocol: The Taz-assay carried out according to the method of Jin and Inouye (1993) with the following alterations. E. coli RU1012 (pYT0301) were grown overnight in M9 medium at 37° C. supplemented with 100 ug/ml ampicillin and 50 ug/ml kanamycin. This overnight culture was then used to inoculate 50 ml M9 medium in side-arm flasks which were then incubated at 37° C. and shaken at 180 rpm. The OD610 of the growing cultures was monitored regularly and when the OD610=0.2 the cultures were placed on ice. Aspartate was added to side-arm flasks to give a final concentration of 3 mM (aspartate stock solution made up in M9 salts).
The test compound or mixtures of compounds were dissolved in ethanol and added to cultures to give the required final concentrations. Negative controls were prepared with equal volumes of ethanol. Cultures were then placed in a 37° C. incubator and shaken for 4 hours (OD610 approximately 0.7) before being removed and put on ice. Samples were then removed for […]eta-galactosidase assays carried out according to the method of Miller (1972).

Row | SMILES | AI-2 (AI-2 activity) (AI-2 activity) | AHL (inhibitor of AHL-mediated quorum sensing) [1] | 2 component (two-component signal transduction assay) [2]
1 | CC1=CC(=C(Br)Br)OC1=O [compound 64] | 80% reduction | good | No effect
2 | CC1=CC(=O)OC1(Br)C(Br)Br (stereo not shown) [compound 72] | 97% reduction |  | 
